Data reported in paper PMC5653977 (EMBO Molecular Medicine, 2017).
Structures can show the parent of a compound that is named as a salt.

Tests used:
ERBB4-PIK3R1 = molecular target: T1, ERBB4-PIK3R1 (Homo sapiens, UniProt Q15303); assay: ERBB4-PIK3R1 split TEV single-culture dose-response assay, EGFld as stimulus; assay type: cell-based; conditions: for inhibitory effect in the ERBB4-PIK3R1 single-culture assay: PC12 cells, 10 ng/ml EGFld as stimulus
T1 construct: human full‐length ERBB4‐Cyt1 was fused to the NTEV fragment; expressed in transfected cells; host or cells: PC12 Tet-Off cells (rat)
Description: For our HTS‐compatible split TEV assay approach, human full‐length ERBB4‐Cyt1 was fused to the NTEV fragment, a TEV protease cleavage site (tevS) and the artificial co‐transcriptional activator Gal4‐VP16 (ERBB4‐NTEV‐tevS‐GV); human PIK3R1 was fused to the CTEV fragment (PIK3R1‐CTEV) (Fig 1A). Upon ERBB4 activation, PIK3R1 is recruited to the receptor resulting in a reconstituted protease activity that cleaves off GV. In turn, released GV translocates to the nucleus and binds to upstream activating sequences (UAS) to activate the transcription of a firefly luciferase reporter gene (Fig 1A). A constitutively expressed Renilla luciferase driven under the control of the human thymidine kinase (TK) promoter was used as control to address off‐target effects related to toxicity.
For one 96‐well plate, 4 × 10^6 PC12 cells were harvested and diluted in 5 ml assay medium (phenol red‐free DMEM (low glucose, Life Technologies), 10% FCS, 5% HS, no antibiotics). The split TEV assay plasmids (2 μg pcDNA3_ERBB4‐NTEV‐tevS‐GV‐2xHA, 2 μg pTag4C_PIK3R1‐CTEV‐2xHA, 2 μg p5xUAS_firefly luciferase, 2 μg pTK_Renilla luciferase, and 0.5 μg pECFP‐C1 for examining transfection efficiency) were diluted in 2.5 ml Opti‐MEM (Life Technologies) and vortexed. In parallel, 20 μl of the transfection reagent Lipofectamine 2000 was diluted in 2.5 ml Opti‐MEM and vortexed.

NRG1-ERBB4 signaling = assay: Nrg1-ERBB4-PIK3R1 split TEV co-culture compound screen of the NIH Clinical Collection; assay type: cell-based, human
[1] = tested on: pyramidal neurons of the prefrontal cortex; assay: Spontaneous inhibitory postsynaptic currents (sIPSCs) in acute prefrontal cortex slices; assay type: cell-based, mouse; conditions: 10 μM, bath application
Procedure: (§1) 300‐μm‐thick transverse slices comprising the medial prefrontal cortex (mPFC) area were prepared from 7‐ to 8‐week‐old C57Bl/6 mice as described previously (Teng et al, 2013; Agarwal et al, 2014). All recordings were performed in cortical layer V projection neurons. The bath solution consisted of oxygenated artificial cerebrospinal fluid (ACSF) containing NaCl 126 mM, KCl 3 mM, NaH2PO4 1.25 mM, MgSO4 1 mM, NaHCO3 26 mM, CaCl2 2 mM, glucose 10 mM, and the pH 7.2 adjusted with NaOH. Spontaneous GABAergic inhibitory postsynaptic currents (sIPSC) and evoked GABAergic inhibitory postsynaptic currents (eIPSC) were recorded at a holding potential of −70 mV in the presence of 6‐cyano‐7‐nitroquinoxaline‐2,3‐dione (CNQX, 10 μM) and DL‐2‐amino‐5‐phosphonovaleric acid (D‐APV, 50 μM). Glass pipettes were filled with the solution containing: KCl 140 mM, MgCl2 2 mM, CaCl2 1 mM, Na2GTP 0.5 mM, Na2ATP 4 mM, EGTA 10 mM, HEPES 10 mM. Patches with a series resistance of > 25 MΩ, a membrane resistance of < 0.8 GΩ, or leak currents of > 150 pA were excluded. Biphasic rectangular electric pulses (10 ms, 100–300 μA) were applied to layer I of the prelimbic area of mPFC through another glass pipette filled with ACSF. Synaptic currents were acquired at 20 kHz and filtered at 6 kHz, with a Digidata 1440 ADC‐converter coupled to a Multiclamp 700B amplifier (Molecular Devices, USA). Data acquisition was performed using pClamp10 software (Molecular Devices). MiniAnalysis 6.0.9 (Synaptosoft Inc., Decatur, USA) and pClamp10.1 were used for amplitude and frequency analysis of sIPSCs and eIPSCs, respectively. Paired Student's t‐test was used for statistical analysis.

ERBB4 = ERBB4 (Homo sapiens, UniProt Q15303); assay: Western blot of ERBB4 phosphorylation in T-47D cells; conditions: 10 ng/ml EGFld, 10 μM compound, 5 min
[2] = tested on: pyramidal neurons of the prefrontal cortex; assay: Evoked inhibitory postsynaptic currents (eIPSCs) in acute prefrontal cortex slices; assay type: cell-based, mouse; conditions: 5 μM
Procedure: as §1, with “Data acquisition was performed using pClamp10 software (Molecular Devices). MiniAnalysis 6.0.9 (Synaptosoft Inc., Decatur, USA) and pClamp10.1 were used for amplitude and frequency analysis of sIPSCs and eIPSCs, respectively. Paired Student's t‐test was used for statistical analysis.” left out

[3] = compounds at 10 μM, 24 h, PC12 split TEV assay cells co-cultured with Nrg1-expressing PC12 cells, analysed with cellHTS2
[4] = compound screen of the NIH Clinical Collection, sheet raw data NCC-003, compounds ranked by Z-score
[5] = NIH Clinical Collection NCC-003 raw data, compounds ranked by Z-score, 'flagged' given instead of a Z-score

T1 sequence (Q15303 26-1308): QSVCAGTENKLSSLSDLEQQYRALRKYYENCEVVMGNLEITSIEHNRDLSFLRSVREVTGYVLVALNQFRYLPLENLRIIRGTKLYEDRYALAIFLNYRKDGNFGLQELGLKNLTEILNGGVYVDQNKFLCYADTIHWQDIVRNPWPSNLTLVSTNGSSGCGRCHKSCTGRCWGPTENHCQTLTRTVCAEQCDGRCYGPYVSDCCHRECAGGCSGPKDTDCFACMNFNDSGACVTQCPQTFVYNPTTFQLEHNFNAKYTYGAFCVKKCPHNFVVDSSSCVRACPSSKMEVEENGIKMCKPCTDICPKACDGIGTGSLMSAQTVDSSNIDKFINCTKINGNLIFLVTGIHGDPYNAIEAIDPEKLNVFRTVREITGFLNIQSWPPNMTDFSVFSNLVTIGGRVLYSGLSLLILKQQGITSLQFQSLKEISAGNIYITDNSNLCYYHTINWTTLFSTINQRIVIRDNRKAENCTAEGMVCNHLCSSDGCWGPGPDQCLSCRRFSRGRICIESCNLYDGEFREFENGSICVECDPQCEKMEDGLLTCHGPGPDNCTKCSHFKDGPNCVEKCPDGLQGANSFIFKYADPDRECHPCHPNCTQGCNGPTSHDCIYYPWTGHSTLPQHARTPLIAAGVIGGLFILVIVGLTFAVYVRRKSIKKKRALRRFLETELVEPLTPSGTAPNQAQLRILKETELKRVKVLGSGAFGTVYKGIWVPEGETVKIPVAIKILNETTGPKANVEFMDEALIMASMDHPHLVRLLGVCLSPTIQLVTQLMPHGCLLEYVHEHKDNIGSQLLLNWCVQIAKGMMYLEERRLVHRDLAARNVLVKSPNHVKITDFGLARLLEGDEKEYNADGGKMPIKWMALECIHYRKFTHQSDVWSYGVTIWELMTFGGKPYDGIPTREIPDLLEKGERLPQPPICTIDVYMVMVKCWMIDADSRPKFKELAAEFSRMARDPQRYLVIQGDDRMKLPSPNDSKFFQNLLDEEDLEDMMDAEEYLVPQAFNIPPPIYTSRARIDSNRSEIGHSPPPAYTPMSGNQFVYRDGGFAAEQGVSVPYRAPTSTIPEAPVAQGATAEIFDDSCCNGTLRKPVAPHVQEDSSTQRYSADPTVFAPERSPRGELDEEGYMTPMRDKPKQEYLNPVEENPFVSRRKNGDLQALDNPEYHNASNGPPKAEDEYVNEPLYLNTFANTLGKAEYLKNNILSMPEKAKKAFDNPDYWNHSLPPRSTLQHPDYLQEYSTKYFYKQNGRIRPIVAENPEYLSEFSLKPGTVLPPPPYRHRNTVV
ERBB4, sequence (Q15303 26-1308): as above

Row | Compound | Z-SCORE (NRG1-ERBB4 signaling; [3]) | Z-SCORE (NRG1-ERBB4 signaling; [4]) | other results
1 | CS[C@@H]1CC2=CC(=O)CC[C@]2(C)C2CC[C@@]3(C)C(CCC34CCC(=O)O4)C21 (some centres unmarked) |  |  | inhibitory effect in the ERBB4-PIK3R1 single-culture assay (ERBB4-PIK3R1): None of these compounds showed an inhibitory effect
2 | C[C@H](CCC(=O)O)[C@H]1CC[C@H]2[C@@H]3[C@@H](O)C[C@@H]4C[C@H](O)CC[C@]4(C)[C@H]3CC[C@]12C [URSODEOXYCHOLIC ACID, reference compound] | -1.5 |  | 
3 | CC(C[N+](C)(C)C)OC(N)=O (centres unmarked) [Urecholine, reference compound] | -0.94 |  | 
4 | CC(C)[C@H](N)C(=O)OCCOCn1cnc2c(=O)[nH]c(N)nc21 [VALACICLOVIR HYDROCHLORIDE] |  | 0.49 | 
5 | Cc1onc(-c2ccccc2)c1-c1ccc(S(N)(=O)=O)cc1 [VALDECOXIB] |  | 0.19 | 
6 | CC(=O)O[C@H]1C[C@@H]2CC[C@@H]3[C@H](CC[C@@]4(C)[C@H]3C[C@H]([N+]3(C)CCCCC3)[C@@H]4OC(C)=O)[C@@]2(C)C[C@@H]1N1CCCCC1 [VECURONIUM BROMIDE] |  | 0.97 | 
7 | COc1ccc(C(CN(C)C)C2(O)CCCCC2)cc1 (centres unmarked) [VENLAFAXINE HCl] |  | 0.54 | 
8 | CC[C@]1(O)C[C@H]2CN(CCc3c([nH]c4ccccc34)[C@@](C(=O)OC)(c3cc4c(cc3OC)N(C=O)[C@H]3[C@@](O)(C(=O)OC)[C@H](OC(C)=O)[C@]5(CC)C=CCN6CC[C@]43[C@@H]65)C2)C1 [VINCRISTINE SULFATE] |  |  | Z-SCORE (NRG1-ERBB4 signaling; [5]): flagged
9 | CC[C@]1(O)C[C@@H]2CN(CCc3c([nH]c4ccccc34)[C@@](C(=O)OC)(c3cc4c(cc3OC)N(C)[C@H]3[C@@](O)(C(N)=O)[C@H](O)[C@]5(CC)C=CCN6CC[C@]43[C@@H]65)C2)C1 [VINDESINE SULFATE] |  |  | Z-SCORE (NRG1-ERBB4 signaling; [5]): flagged
10 | C[C@@H](c1ncncc1F)[C@](O)(Cn1cncn1)c1ccc(F)cc1F [VORICONAZOLE] |  | -0.06 | 
11 | CCCC(CCC)C(=O)O [Valproic Acid, reference compound] | -1.05 |  | 
12 | CCCc1nc(C)c2c(=O)[nH]c(-c3cc(S(=O)(=O)N4CCN(CC)CC4)ccc3OCC)nn12.O=C(O)CC(O)(CC(=O)O)C(=O)O [Vardenafil citrate, reference compound] | 5.88 | 5.88 | 
13 | Cc1ccnc2c1NC(=O)c1cccnc1N2C1CC1 [Viramune] |  | 0.09 | 
14 | O=C(O)c1cc2ccccc2c(Cc2c(O)c(C(=O)O)cc3ccccc23)c1O.OCCOCCN1CCN(C(c2ccccc2)c2ccc(Cl)cc2)CC1 [Vistaril Pamoate, reference compound] | -1.45 |  | 
15 | CC(=O)CC(c1ccccc1)c1c(O)c2ccccc2oc1=O (centres unmarked) [WARFARIN SODIUM, reference compound] | -0.02 |  | 
16 | CCCCC(=O)O[C@]1(C(=O)CO)CC[C@H]2[C@@H]3CCC4=CC(=O)CC[C@]4(C)[C@H]3[C@@H](O)C[C@@]21C [Westcort, reference compound] | -0.71 |  | 
17 | CN(CCO)CC(O)Cn1cnc2c1c(=O)n(C)c(=O)n2C.O=C(O)c1cccnc1 (centres unmarked) [XANTHINOL NICOTINATE] |  | -0.46 | 
18 | COc1cc(C(=O)NS(=O)(=O)c2ccccc2C)ccc1Cc1cn(C)c2ccc(NC(=O)OC3CCCC3)cc12 [ZAFIRLUKAST] |  | -0.67 | 
19 | C[C@H]1CCC[C@H](O)CCCCCc2cc(O)cc(O)c2C(=O)O1 [ZERANOL] |  | -0.91 | 
20 | CC(c1cc2ccccc2s1)N(O)C(N)=O (centres unmarked) [ZILEUTON] |  | 1.28 | 
21 | Cc1ccc(-c2nc3ccc(C)cn3c2CC(=O)N(C)C)cc1 [ZOLPIDEM TARTRATE] |  | -0.69 | 

Row | Compound | Z-SCORE (NRG1-ERBB4 signaling; [3]) | Z-SCORE (NRG1-ERBB4 signaling; [4]) | other results
22 | COc1cc(N)c(Cl)cc1C(=O)NC1CN2CCC1CC2 (centres unmarked) [Zacopride] |  | -0.82 | 
23 | CCN(C(C)=O)c1cccc(-c2ccnc3c(C#N)cnn23)c1 [Zaleplon] |  | -0.02 | 
24 | CN(C)CCc1c[nH]c2ccc(C[C@H]3COC(=O)N3)cc12 [Zolmitriptan] |  | 0.57 | 
25 | NS(=O)(=O)Cc1noc2ccccc12 [Zonisamide, reference compound] | -0.47 |  | 
26 | CC[C@@H]1C=CC=CC[C@H](C)[C@@H](O)[C@@H](C)C(=O)[C@H](C)[C@@H](O)[C@H](C)C(=O)[C@H](C)[C@@H](O)[C@H](C)C=CC(=O)O[C@H]2[C@@H](C)[C@@H](CC1)O[C@@]1(CC[C@@H](C)[C@@H](C[C@H](C)O)O1)[C@@H]2C [[…]] |  | -0.54 | 
27 | C[C@]12CCC(=O)C=C1C=C[C@@H]1[C@@H]2CC[C@@]2(C)[C@H]1CC[C@@]21CCC(=O)O1 [canrenone] |  |  | inhibitory effect in the ERBB4-PIK3R1 single-culture assay (ERBB4-PIK3R1): None of these compounds showed an inhibitory effect; sIPSC amplitude [1]: no significant effect; sIPSC frequency [1]: no significant effect
28 | COC(=O)[C@H](c1ccccc1Cl)N1CCc2sccc2C1 [clopidogrel, reference compound] | -0.3 |  | 
29 | O=c1c(-c2ccccc2)c1-c1ccccc1 [diphenylcyclopropenone] |  |  | Z-SCORE (NRG1-ERBB4 signaling; [5]): flagged
30 | COC(=O)[C@@H]1CC2=CC(=O)CC[C@]2(C)[C@@]23O[C@@H]2C[C@@]2(C)[C@@H](CC[C@@]24CCC(=O)O4)[C@H]13 [eplerenone] |  |  | inhibitory effect in the ERBB4-PIK3R1 single-culture assay (ERBB4-PIK3R1): None of these compounds showed an inhibitory effect
31 | CC(C)n1c(/C=C/C(O)CC(O)CC(=O)O)c(-c2ccc(F)cc2)c2ccccc21 (centres unmarked) [fluvastatin, reference compound] | flagged |  | 
32 | CS(=O)(=O)CCNCc1ccc(-c2ccc3ncnc(Nc4ccc(OCc5cccc(F)c5)c(Cl)c4)c3c2)o1 [lapatinib, Lapatinib ditosylate] |  |  | ERBB4 phosphorylation at Tyr1056 and Tyr1284 (ERBB4): completely reverted; eIPSC amplitude [2]: increases
33 | CC[C@H](C)C(=O)O[C@H]1CCC=C2C=C[C@H](C)[C@H](CC[C@@H]3C[C@@H](O)CC(=O)O3)[C@H]21 [mevastatin] |  |  | Z-SCORE (NRG1-ERBB4 signaling; [5]): flagged
34 | CN1CCN2c3ncccc3Cc3ccccc3C2C1 (centres unmarked) [mirtazapine, reference compound] | 0.65 | -0.36 | 
35 | C[C@]12CC[C@H]3[C@@H](CCC4=CC(=O)CC[C@@H]43)[C@@H]1CC[C@@H]2O [nandrolone] |  | -0.57 | 
36 | CCOC(=O)[C@H](CCc1ccccc1)N[C@@H](C)C(=O)N1[C@H](C(=O)O)C[C@@H]2CCC[C@@H]21 [reference compound] | 4.3 |  | Z-SCORE (NRG1-ERBB4 signaling; [5]): -1.41
37 | Cc1cn([C@H]2C[C@H](N=[N+]=[N-])[C@@H](CO)O2)c(=O)[nH]c1=O [zidovudine, reference compound] | 0.17 |  | 
38 | Benzeneacetic acid |  | -0.01 | 
39 | EGFld: soluble biologically active EGF-like domain of NRG1, used as Nrg1 stimulus (Reprokine, RKQ02297) |  |  | EC50, ERBB4-PIK3R1 dose-response assay using EGFld as stimulus (ERBB4-PIK3R1; PC12 split TEV assay cells, single culture): 1 ng/mL
40 | MEDROXYPROGESTERONE |  |  | Z-SCORE (NRG1-ERBB4 signaling; [5]): -2.38
41 | S(-)-Timolol maleate [reference compound] | -0.49 |  | 
